# Laboratory results published in patent US6630125B2, “18F-labeled choline analogs” (priority 2000, dated 2003).
# Test system: PC-3 prostate cancer cells
# Test: Analysis of radiolabeled metabolites in PC-3 prostate cancer cells
# Format: cell-based, human
# Experimental: The primary hydrophilic metabolites of choline in mammals is phosphocholine and betaine. […] The HPLC system used a microprocessor-controlled solvent delivery system and a silica column (Adsorbosphere Silica (10μ), 250×4.6 mm, Alltech, Deerfield, Ill.). The column was kept at room temperature and the flow rate was maintained at 1.5 ml/min. […] Fractions of effluent were collected every 0.5 min and first counted for ^18F-radioactivity in a well-counter for experiments involving [^18F]FCH, then transferred to scintillation vials for counting for ^14C-radioactivity. The column was equilibrated for 6 min with Buffer A before injection. After the injection (<100 μl), Buffer A was delivered for 6 min which eluted betaine (3 min) from the column. […] Re-equilibration of the column with 100% A for 6 min preceded the next injection.
# Methanol (1 ml) was added to each well and the cells were lysed by maintaining the temperature at 37° C. for 30 min. The methanol phase was transferred to a glass test tube. Each well was rinsed with an additional 0.5 ml methanol which was added to the original fraction. To each tube, 3 ml chloroform and 1 ml 0.25 M sodium phosphate (pH=4.5) were added to separate lipids from water-soluble molecules. After vigorous mixing of the samples for 1 min, the two phases were separated, and a 0.5 ml aliquot of each phase was counted for ^18F and ^14C radioactivity. The aqueous phase was further analyzed for water-soluble metabolites using the gradient-HPLC method previously described.
# Cells incubated in 6-well plates for 2 hr with radiotracers were thoroughly washed to remove all extracellular radioactivity. The cells were lysed in methanol and the methanol solution added to chloroform to solubilize all lipophilic metabolites.
structure (smiles),measurement,setting,value
"C[N+](C)(CF)CCO.[Cl-] [FCH, dimethylfluoromethyl-2-hydroxyethylammonium chloride]","^18F-labeled species: hydrophilic metabolites, FCH",+HC-3 (5 mM hemicholinium-3),0.04 ± 0.01 percentage of administered dose
same,"^18F-labeled species: hydrophilic metabolites, P-FCH",+HC-3 (5 mM hemicholinium-3),0.12 ± 0.03 percentage of administered dose
same,^18F-labeled species: lipophilic metabolites,+HC-3 (5 mM hemicholinium-3),0.01 ± 0.01 percentage of administered dose
same,"^18F-labeled species: hydrophilic metabolites, FCH","Control, 2 hr, 37° C.",0.29 ± 0.05 percentage of administered dose
same,"^18F-labeled species: hydrophilic metabolites, P-FCH","Control, 2 hr, 37° C.",7.1 ± 0.9 percentage of administered dose
same,^18F-labeled species: lipophilic metabolites,"Control, 2 hr, 37° C.",2.4 ± 0.4 percentage of administered dose
same,"incorporation of radioactivity into lipophilic species, FCH relative to [^14C]CH","PC-3 cells, 2 hr",5 fold
same,oxidation in the cancer cells (betaine / fluorobetaine by HPLC),"PC-3 cells, 2 hr",negligible
same,share of cell radioactivity found as phosphorylated tracer (phosphorylfluorocholine / phosphocholine),"PC-3 cells, 2 hr",Approximately 72%
same,share of total cell radioactivity as lipophilic metabolites,"PC-3 cells, 2 hr",25%
